Columns and labels:
[1] = test system: Male Sprague Dawley rats, 2 cm circular dorsal wounds; assay: Rat model of wound healing; type: in vivo; settings: for Wound area relative to control (significance, in words): day 3 post surgery; for Wound colour observations relative to control: days 3-5; for Consistent brown wound colour scores: days 9 and 10, red indicates a less healed wound than brown
Procedure: Male Sprague Dawley rats weighing between 250-300 grams were used as a wound healing model to assess the effects of PGE and GMCSF. 6 rats per treatment group were analysed to provide adequate data for statistical comparisons between control and treated groups. A total of 24 animals were used (4 groups of 6 rats). The four groups were control, 16,16-dimethyl PGE, GMCSF, and 16,16-dimethyl PGE+GMCSF groups. […] Two wounds were created on each animal, resulting in an “n” of 12 wounds per group.
Following acclimatisation (5-6 days), the rats were given a subcutaneous injection of Glycopyrolate (0.01 mg/kg at 0.02 mg/mL), dose volume 0.5 mL/kg, and anesthetised with an intraperitoneal injection of a Ketamine (40 mg/kg)/Xylazine (5 mg/kg) cocktail at 45 mg/mL (ket) and 5 mg/mL (xy), dose volume 0.88 mL/kg. Adequate depth of anesthesia was assessed by a toe pinch prior to beginning surgery, such that if any movement was noted, the animals were given more anaesthesia. […] Once anesthesia was accomplished, a 6×8 cm area was shaved in the dorsal area. Following shaving, a depilatory agent (Nair) was applied to the shaved area, and allowed to remain on the skin for approximately 5 minutes. After this time, the Nair was gently scraped from the skin with a blunt spatula and any residue was removed by rinsing the skin with deionised, distilled water and wiping with gauze sponges. The shaved area was then surgically prepared with chlorhexidine and alcohol scrub.
The rat was then placed on its abdomen and positioned in such a way that the limbs were relaxed and the spine was straight. […] The inside margins of the T were traced with a Sharpie pen, such that as upside-down “L” appeared on the right side of the rat and an upside-down and backward “L” appeared on the left side of the animal. These designated the cranial border of each wound, approximately 3 cm caudal to the scapular angles, and the medial border of each wound, approximately 0.25 cm from the midline.
To make the wound template, the rim of a cap from a Corning 15 ml conical tube was placed on the area and traced using a sterile surgical marker creating a 2 cm circle within one of the upside-down L's described above. An initial incision was made with a #10 scalpel blade at the medial edge of each circle. The incision was made through the panniculus carnosus into the areolar layer of the subcutaneous loose connective tissue. The excision was continued around the entire perimeter of the circle using forceps and Metzenbaum curved scissors while taking care to avoid damaging the deep fescial layers. The skin was removed to leave a circular wound. Where necessary, hemostasis was achieved by even compression with a sterile gauze pad.
The test agent or vehicle control, was administered at three different sites under the wound bed. Group assignments and dose levels for each treatment were as detailed in Table 8. Dose levels were based on body weight.
The wounds were not covered with any type of dressing. Approximately 30 minutes after recovery (determined by sternal recumbency and normal movement) the animals were given a subcutaneous injection of Buprenorphine (0.1 mg/kg) and transferred to individual cages with elevated stainless steel floors. Additional Buprenorphine was given every 6-8 hours as needed, then for the following 72 hours, 0.05 mg/kg was administered every 6-12 hours as needed.
Animals were anesthetised with isoflurane on days 3, 7, and 10 following surgery and the wounds were measured by caliper for width and length. The width and length measurements were then multiplied to calculate wound area and the mean wound area and standard error of the mean for each treatment determined. To test for any significant difference in wound healing relative to control treatment, a two-way analysis of variance (ANOVA) test was performed on the mean wound areas. In addition to wound area, wound healing was evaluated daily by observing wound colour. […]

[2] = molecular target: T1, 15-hydroxy prostaglandin dehydrogenase (Homo sapiens, UniProt P15428); settings: cited from earlier work
T1 sequence (P15428 1-266): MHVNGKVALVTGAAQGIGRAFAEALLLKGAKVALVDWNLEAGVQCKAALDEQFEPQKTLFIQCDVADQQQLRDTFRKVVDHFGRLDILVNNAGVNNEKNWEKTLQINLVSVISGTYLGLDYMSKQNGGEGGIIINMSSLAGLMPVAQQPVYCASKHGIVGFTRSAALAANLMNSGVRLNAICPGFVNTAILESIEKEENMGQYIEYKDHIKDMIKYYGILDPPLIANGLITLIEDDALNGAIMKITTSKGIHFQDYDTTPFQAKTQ

PGE receptors = settings: cited from earlier work
ML1 cells = assay: ELISA for measuring cytokine release; type: cell-based, human; settings: monocyte
Procedure: Medium was removed from cells and analysed by ELISA. A monoclonal capture antibody was coated onto 96 well plates and culture medium was added each well. A standard curve was created with recombinant protein. After incubation and washing, a biotin-labelled monoclonal antibody was added. Following further incubation and washing, peroxidase-labelled streptavidin was added. After washing, a tetramethyl benzidine substrate was added and colour developed in proportion to the concentration of the cytokine in the original sample/standard. Colour was read using a plate photometer (Labsystems, Multiskan).
Paired antibodies and recombinant standards for CD14, CXCL8 (IL-8), and CCL2 (MCP-1) were obtained from R&D Systems Ltd, Abingdon UK and antibodies for IL-10 were obtained from Pharmingen (BD Bioscience, Erembodegem, Belgium), as shown below in Table 1.

[3] = Day 3 post surgery, PGE analog 400 μg/kg and/or GMCSF 25 μg/kg per site under the wound bed
[4] = Day 7 post surgery, PGE analog 400 μg/kg and/or GMCSF 25 μg/kg per site
[5] = Day 10 post surgery, PGE analog 400 μg/kg and/or GMCSF 25 μg/kg per site

| Compound | Difference in wound area relative to control ([1]; Day 3) | Mean wound area [1, 3] [mm^2] | Difference in wound area relative to control ([1]; Day 7) | Mean wound area [1, 4] [mm^2] | Difference in wound area relative to control ([1]; Day 10) | Mean wound area [1, 5] [mm^2] | Wound area relative to control (significance, in words) [1] | Wound colour observations relative to control [1] | Consistent brown wound colour scores [1] | Resistance to the main catabolic enzyme 15-hydroxy prostaglandin dehydrogenase [2] | Activation of PGE receptors (PGE receptors) | IL-8 release induced by PGE and GMCSF (ML1 cells) |
| --- | --- | --- | --- | --- | --- | --- | --- | --- | --- | --- | --- | --- |
| 16,16-dimethyl PGE [PGE analog] | −52.21 | 387.5 | −11.29 | 255.4 | −9.185 | 135.1 | No significant difference | more consistent brown scores relative to the control treatment | 2 | resistant | activate all known PGE receptors | – |
| COc1ccc(C2CNC(=O)C2)cc1OC1CCCC1 (stereo not drawn) [rolipram] | – | – | – | – | – | – | – | – | – | – | – | enhance IL-8 release |
| GMCSF | −15.50 | 424.2 | −18.63 | 248.0 | 8.761 | 153.0 | No significant difference | more consistent brown scores relative to the control treatment | 3 | – | – | – |

Source: patent publication US8273712B2, “Promoting wound healing by administering a prostaglandin E and granulocyte-macrophage colony stimulating factor” (Medical Research Council, priority 2005, dated 2012)
